{"source": "patent US5928645A", "about": "“Extracted substance having anti-HIV activity” (Young Bok Han & Korean Assoc. of Creation Research, priority 1992, dated 1999)", "key": {"HIV": {"system": "HIV", "conditions": "Tan et al. 1992; cited from earlier work"}, "[1]": {"system": "HIV-infected cells (T cell line SupT1)", "assay": "Syncytium-formation assay (number of multinucleate cells)", "type": "cell-based", "conditions": "three-day incubation", "experimental": "To evaluate toxicity of the extracted substances on a T cell line (SupT1), maximum acceptable concentrations of antiviral agents were determined as follows:\nAfter incubation, the cells were treated with trypan blue. The number of cells that excluded the dye was counted using a hemocytometer. \"TCID50 \" is defined as the 50% tissue culture-infective dose. (Reference: Techniques in HIV research, ed. Aldovini, A., and Walter, B. D., Stockton Press, N.Y. Unitd States, Chapter 4. Quantitative assay for virus infectivity, pp. 71-73, 1990.) The 50% tissue culture-infective dose (TCID50) is calculated using the method of Reed and Muench (Dulbecco, R., \"Endpoint Method-Measurement of the infectious titer of a viral sample\" in the chapter entitled: The Nature of Viruses in Virology, Second Edition, J. P. Lippincott, Philadelphia, pp. 22-25, 1988). This method is applicable for measuring the infectious titer of a viral sample from an assay involving a series of progressive dilutions of virus. To generate the 50% endpoint dilution, an empirical pooling of the results is done after reading the plate for visible infection at all of the dilutions tested. In cell cultures, the tissue culture infective dose (TCID50) is the dilution of virus suspension that infects 50% of the cell cultures as measured by visible CPE.\nAfter a three-day incubation the number of multinucleate cells in each culture were counted. As comparative tests, similar experiments were performed using AZT or berberine, rather than the extract of the present invention, to treat the cells."}, "[2]": {"system": "HIV reverse transcriptase", "conditions": "cited from earlier work"}, "reverse transcriptase": {"system": "reverse transcriptase", "assay": "Reverse transcriptase activity of HIV-infected H9 cells", "type": "cell-based", "conditions": "0.5 μg/ml", "experimental": "The effect of the extract of the present invention on reverse transcriptase activity and on viral replication was also measured in H9 host cells. HIV infected H9 cells were cultured in RPMI 1640 supplemented with 10% (v/v) of heat-inactivated fetal calf serum and 1% (v/v) […] Every third day 1/4 of the cultures were transferred to new media containing the same concentration of the extract. The cultures were harvested after 9 days and centrifuged for 3 minutes in an Eppendorf centrifuge. 600 μl of supernatant was mixed 300 μl of 30% polyethylene glycol (PEG) and then centrifuged for 10 minutes. The pellet was resuspended in RT suspension buffer (50 mM Tris, pH 7.5, 1 mM DTT, 20% glycerol, 0.25% Triton X-100). These virus samples were frozen at -70° C. until assayed. Aliquots of virus (10 μl) were incubated with 20 μl of a cocktail containing 50 mM Tris, pH 7.5, 5 mM DTT, 5 mM MgCl2, 150 mM KCl, 0.05% Triton X-100, 0.3 mM glutathione, 0.5 mM EGTA, 50 μg/ml poly(rA)dT, 10μ Ci thymidine triphosphate, and 17.25 μl distilled water for 1 hour at 37° C. […] Precipitates were collected on Whatman GF/C glass fibers, washed several times with ice-cold 5% TCA and once with 70% ethanol, air dried and counted in a liquid scintillation counter."}, "[3]": {"system": "ABEI-microperoxidase-H2 O2 system", "assay": "Antioxidant activity by chemiluminescence (inhibition of light intensity)", "type": "biochemical", "text": "Therefore, we characterized the extract of the present invention with respect to its ability to function as an antioxidant. We compared the extract to the known antioxidant t-butylhydroxy toluene (BHT) using a chemiluminescence assay developed in this laboratory. […] Therefore, it is proposed that the extract has anti-HIV effect.\nMaterials: microperoxidase (MP, Sigma Chemical Company, St. Louis, Mo., U.S.A.), aminobuty ethylisoluminol (ABEI, Sigma Chemical Company, St. Louis, Mo., U.S.A.), t-butylhydroxy toluene (BHT, Sigma Chemical Company, St. Louis, Mo., U.S.A.).\nAn ABEI-microperoxidase-H2 O2 system was used to assay the antioxidant activity of the extract of the present invention and also that of the known antioxidant BHT. The activity of berberine as an antioxidant was also assessed.\nABEI was used at 0.18 μM. Compounds being assayed were used at 10 mg/ml as a maximum concentration and also at serial dilutions. 200 μL of ABEI, t-butylhydroxy toluene (BHT), pure berberine or the extracted substance at 10 mg/ml (or a serial dilution thereof) were put in a polystyrene tube suitable for use in a Berthold 9502 luminometer. Hydrogen peroxide (0.35%) and microperoxidase (0.01 mg/ml) were autoinjected into the tube to start the chemiluminescence reaction. Chemiluminescence from the reaction was measured for 2 seconds using a Berthold Luminometer 9502 (Clilumat). In control samples distilled water and ethyl alcohol were used. The antioxidant activity of the extract was compared with commercial antioxidant BHT. The antioxidant activity of BHT has been studied for many years (Branen, A. L.; Toxicological and biochemistry of butylated hydrosyanisole and butylated hydroxytoluene. J. Am. Oil Chem. Soc. 52:59, 1975). BHT removes free radicals in oxidation reactions, and it inhibits oxidation of materials.\nAn antioxidant present in the sample will prevent ABEI from being oxidized by microperoxidase, thus inhibiting chemiluminescence. Antioxidant activity was calculated from the chemiluminescence intensity using the following expression: [formula]"}, "[4]": {"conditions": "with respect to the template-primer complex, (rA)n, (dT)"}, "[5]": {"conditions": "with respect to the triphosphate substrate, dTTP"}}, "note": "Read-outs that look alike come from different tables or passages of the source."}
{"compound": "c1c2c(cc3c1OCO3)-c1cc3ccc4c(c3c[n+]1CC2)OCO4", "note": "[coptisine chloride]", "values": [{"measurement": "order of anti-HIV effect", "setting": "HIV", "value": "jatrorrhizine chloride>berberine chloride>coptisine chloride"}]}
{"compound": "Cc1cn([C@H]2C[C@H](N=[N+]=[N-])[C@@H](CO)O2)c(=O)[nH]c1=O", "note": "[AZT, azidothymidine]", "values": [{"measurement": "No. of Multiple-Nucleate Cells", "setting": "[1]; 0.2 μg/mL", "value": 0}, {"measurement": "No. of Multiple-Nucleate Cells", "setting": "[1]; 0.5 μg/mL", "value": 1}, {"measurement": "No. of Multiple-Nucleate Cells", "setting": "[1]; 1 μg/mL", "value": 0}, {"measurement": "No. of Multiple-Nucleate Cells", "setting": "[1]; 5 μg/mL", "value": 0}]}
{"compound": "O=c1cc(-c2ccccc2)oc2cc(O)c(O)c(O)c12", "note": "[baicalein]", "values": [{"measurement": "mode of inhibition", "setting": "[2]; [4]", "value": "partially competitive"}, {"measurement": "mode of inhibition", "setting": "[2]; [5]", "value": "noncompetitive"}]}
{"compound": "O=c1c(O)c(-c2ccc(O)c(O)c2)oc2cc(O)c(O)c(O)c12", "note": "[quercetagetin]", "values": [{"measurement": "mode of inhibition", "setting": "[2]; [4]", "value": "partially competitive"}, {"measurement": "mode of inhibition", "setting": "[2]; [5]", "value": "noncompetitive"}]}
{"compound": "O=c1c(O)c(-c2ccc(O)c(O)c2)oc2cc(O)cc(O)c12", "note": "[quercetin]", "values": [{"measurement": "mode of inhibition", "setting": "[2]; [4]", "value": "partially competitive"}, {"measurement": "mode of inhibition", "setting": "[2]; [5]", "value": "noncompetitive"}]}
{"compound": "COc1ccc2cc3[n+](cc2c1OC)CCc1cc2c(cc1-3)OCO2", "note": "[berberine chloride]", "values": [{"measurement": "order of anti-HIV effect", "setting": "HIV", "value": "jatrorrhizine chloride>berberine chloride>coptisine chloride"}]}
{"compound": "COc1cc2c(cc1O)CC[n+]1cc3c(OC)c(OC)ccc3cc1-2", "note": "[jatrorrhizine chloride]", "values": [{"measurement": "order of anti-HIV effect", "setting": "HIV", "value": "jatrorrhizine chloride>berberine chloride>coptisine chloride"}]}
{"compound": "COc1ccc2cc3[n+](cc2c1OC)CCc1cc2c(cc1-3)OCO2", "note": "[Berberine, berberine]", "values": [{"measurement": "inhibition of viral RT activity", "setting": "reverse transcriptase", "value": "marked inhibitory effect on RT activity"}, {"measurement": "No. of Multiple-Nucleate Cells", "setting": "[1]; 0.1 μg/mL", "value": 8}, {"measurement": "No. of Multiple-Nucleate Cells", "setting": "[1]; 0.5 μg/mL", "value": 5}, {"measurement": "No. of Multiple-Nucleate Cells", "setting": "[1]; 1 μg/mL", "value": 2}, {"measurement": "No. of Multiple-Nucleate Cells", "setting": "[1]; 3 μg/mL", "value": 1}, {"measurement": "Percentage of inhibition of light intensity", "setting": "[3]; 0.63 mg/ml", "value": 11, "unit": "%"}, {"measurement": "Percentage of inhibition of light intensity", "setting": "[3]; 1.25 mg/ml", "value": 12, "unit": "%"}, {"measurement": "Percentage of inhibition of light intensity", "setting": "[3]; 2.5 mg/ml", "value": 12, "unit": "%"}, {"measurement": "Percentage of inhibition of light intensity", "setting": "[3]; 5.0 mg/ml", "value": 21, "unit": "%"}, {"measurement": "Percentage of inhibition of light intensity", "setting": "[3]; 10.0 mg/ml", "value": 57, "unit": "%"}, {"measurement": "antioxidant activity compared with the total extract", "setting": "[3]; 0.63-10.0 mg/ml", "value": "much lower"}]}
